These results are taken from ChEMBL document CHEMBL5393443, “Novel inhibitors of insulin-like growth factor 2 mrna binding proteins” (2022).

The test system of this assay is ES-2. The assay is described as follows: Cytotoxicity against human ES2 cells after 72 hrs by InuCyte live cell imaging analysis. In kind it is functional, cell-based. The note with it: ES-2, 72 h.
Broadly, the EC50 is the concentration that produces a half-maximal response. The low end stands for an effect from little substance, the high end for a need for much substance. `COc1ccc(C(=O)Nc2sc(Cc3ccccc3)cc2C(N)=O)cc1COc1cccc(Cl)c1`: it took 355 nM to reach a half-maximal effect (EC50). Compound `NC(=O)c1cc(Cc2ccccc2)sc1NC(=O)c1ccc(COc2ccc(Br)cc2)cc1` yielded an EC50 of 1190 nM. The figure for `COc1ccc(C(=O)Nc2ccccc2C(N)=O)cc1COc1ccccc1Cl` is 1100 nM; for `COc1ccc(C(=O)Nc2sc(Cc3ccccc3)cc2C(N)=O)cc1COc1ccc(Cl)cc1Cl` it is 293 nM; for `NC(=O)c1ccccc1NC(=O)CN1CCN(Cc2ccc(F)cc2Cl)CC1` it is 3170 nM. In turn, `NC(=O)c1ccccc1OCc1ccc(Cl)s1` gave an EC50 of 5610 nM. With `COc1cc(/C=C/C(=O)Nc2ccccc2C(N)=O)ccc1OCc1ccccc1` the figure was 1880 nM.

Take `CCc1cc(C(=O)Nc2sccc2C(N)=O)cs1`: it took 2950 nM to reach a half-maximal effect (EC50). Regarding `NC(=O)c1ccccc1OCC(=O)c1ccc(Br)cc1`, the EC50 worked out at 2950 nM.

In the case of `NC(=O)c1ccccc1NC(=O)CN1CCN(Cc2ccc(Cl)c(Cl)c2)CC1`, it took 1220 nM to reach a half-maximal effect (EC50). Compound `NC(=O)c1ccccc1NC(=O)CN1CCN(Cc2ccc(Cl)cc2Cl)CC1` showed an EC50 of 993 nM. On to `NC(=O)c1cc(Cl)ccc1OCC(=O)c1ccc(Cl)s1`, for which the EC50 was 1330 nM. With `Cc1ccc(C(=O)Nc2sc(Cc3ccccc3)cc2C(N)=O)o1` the figure was 1340 nM; with `NC(=O)c1ccccc1NC(=O)CN1CCN(Cc2c(Cl)cccc2Cl)CC1`, 6460 nM; with `COc1cc(-c2nc3ccccc3c(=O)[nH]2)ccc1OCc1ccccc1[N+](=O)[O-]`, 476 nM.

In the case of `NC(=O)c1c(NC(=O)c2ccc(Cl)s2)sc2c1CCCC2`, the EC50 is 1470 nM.

As to `NC(=O)c1cc(Cc2ccccc2)sc1NC(=O)c1ccccc1`, a half-maximal response (EC50) required 2270 nM. The figure for `COc1ccc(C(=O)Nc2sc(Cc3ccccc3)cc2C(N)=O)cc1OCc1ccccc1Cl` is 1100 nM; for `COc1ccc(C(=O)Nc2sc(Cc3ccccc3)cc2C(N)=O)cc1COc1ccc(Cl)cc1` it is 1020 nM.

The compound `NC(=O)c1ccccc1NC(=O)c1ccc(Cl)c(Cl)c1` showed an EC50 of 1880 nM. Regarding `NC(=O)c1c(NC(=O)c2ccc(Cl)s2)sc2c1CCC2`, the response was half-maximal at 6270 nM (EC50). `CC(C)c1cc(C(N)=O)c(NC(=O)Cc2ccc(Cl)c(Cl)c2)s1`: the EC50 is 2450 nM. With `COc1ccc(C(=O)Nc2ccccc2C(N)=O)cc1Cl` the figure was 5840 nM; with `NC(=O)c1cc(Cc2ccccc2)sc1NC(=O)c1cccc(COc2ccc(Cl)cc2Cl)c1`, 47 nM; with `NC(=O)c1cc(Cc2ccccc2)sc1NC(=O)c1ccc(Cl)s1`, 1660 nM. In turn, `NC(=O)c1cc(Cc2ccccc2)sc1NC(=O)Cc1cccs1` came in with an EC50 of 1160 nM. The figure for `COc1ccc(C(=O)Nc2sccc2C(N)=O)cc1COc1ccccc1Cl` is 1660 nM; for `NC(=O)c1cc(Cc2ccccc2)sc1NC(=O)c1ccc(COc2ccc(Cl)cc2Cl)s1` it is 560 nM. With `COc1ccc(OCc2cc(-c3nc4sc(Cc5ccccc5)cc4c(=O)[nH]3)ccc2OC)cc1` the figure was 1120 nM; with `COc1ccc(C(=O)Nc2sc(Cc3ccccc3)cc2C(N)=O)cc1COc1ccccc1Cl`, 439 nM. With `COc1ccc(C(=O)Nc2sc(Cc3ccccc3)cc2C(N)=O)cc1`, the midpoint of the response, the EC50, lay at 1940 nM. In turn, `NC(=O)c1ccccc1NC(=O)CN1CCN(Cc2ccc(Cl)cc2)CC1` showed an EC50 of 2990 nM. `NC(=O)c1ccccc1NC(=O)c1cc(Cl)cc(Cl)c1` yielded an EC50 of 5140 nM. Take `NC(=O)c1cc(Cc2ccccc2)sc1NC(=O)COc1ccccc1`: a half-maximal effect (EC50) was put at 2420 nM. With `CCc1cc(C(=O)Nc2sc(Cc3ccccc3)cc2C(N)=O)cs1` the figure was 1900 nM; with `NC(=O)c1ccsc1NC(=O)c1cccs1`, 3230 nM; with `NC(=O)c1ccsc1NC(=O)CN1CCN(Cc2ccc(Cl)c(Cl)c2)CC1`, 781 nM. In turn, `NC(=O)c1cc(Cc2ccccc2)sc1NC(=O)CN1CCN(Cc2ccc(Cl)c(Cl)c2)CC1` returned an EC50 of 4090 nM.

Turning to `COc1ccc(C(=O)Nc2sc(C(C)C)cc2C(N)=O)cc1COc1ccccc1Cl`, a half-maximal response (EC50) required 2230 nM. With `NC(=O)c1cc(Cc2ccccc2)sc1NC(=O)c1cccs1` the figure was 671 nM; with `COc1ccc(C(=O)Nc2sc(Cc3ccccc3)cc2C(N)=O)cc1COc1cccc(Cl)c1Cl`, 401 nM. As to `NC(=O)c1ccccc1NC(=O)c1ccc(Cl)s1`, the midpoint of the response, the EC50, lay at 2300 nM.

The compound `COc1ccc(C(=O)Nc2sc(Cc3ccccc3)cc2C(N)=O)cc1COc1c(Cl)cccc1Cl` yielded an EC50 of 2600 nM.

The compound `O=c1[nH]c(-c2ccc(OCc3ccccc3F)cc2)nc2ccccc12` came in with an EC50 of 250 nM.

`CNC(=O)c1ccccc1NC(=O)c1cc(C)c(C)s1` registered an EC50 of 2830 nM.

`NC(=O)c1cc(Cc2ccccc2)sc1NC(=O)CN1CCN(Cc2ccccc2Cl)CC1` showed an EC50 of 7110 nM.

As to `NC(=O)c1ccccc1NC(=O)c1ccccc1`, the EC50 amounted to 10500 nM. The figure for `NC(=O)c1ccccc1NC(=O)CN1CCN(Cc2ccccc2Cl)CC1` is 9580 nM; for `Cc1cc2c(O)nc(Cc3ccccc3)nc2s1` it is 4840 nM; for `CC(Sc1nnc(NC(=O)c2ccccc2)s1)c1nc2ccccc2c(=O)[nH]1` (configuration not stated) it is 4050 nM. With `NC(=O)c1ccccc1NC(=O)C1CCN(C(=O)c2cccs2)CC1` the figure was 5180 nM; with `COc1ccc(C(=O)Nc2sc(C(C)C)cc2C(N)=O)cc1COc1ccc(Br)cc1`, 8340 nM; with `NC(=O)c1cc(Cc2ccccc2)sc1NC(=O)CCc1ccccc1`, 6210 nM. The figure for `NC(=O)c1cc(Cc2ccccc2)sc1NC(=O)c1ccc2c(c1)OCO2` is 1300 nM. `Cc1ccc(C(=O)Nc2ccccc2C(N)=O)s1`: it took 2060 nM to reach a half-maximal effect (EC50). Take `NC(=O)c1ccccc1NC(=O)c1cccc(COc2cccc(Cl)c2)c1`: the midpoint of the response, the EC50, lay at 675 nM. The figure for `CCc1c(C(=O)Nc2sc(Cc3ccccc3)cc2C(N)=O)csc1C` is 5060 nM.
